The values that follow come from patent US20220143152A1, “USE OF PEPTIDE DERIVED FROM H-REV107” (GJMEDI INC., priority 2019, published 2022).

Experiment [1] has as its system NCI-H23 (lung cancer) cell-line. Nature of the experiment: Cancer inhibitory activity, CCK-8. The experiment is classed as cell-based. The conditions noted are these: NCI-H23, 72 hours treatment. The protocol:
(§1) Cancer cell-lines used in this example were SW480 (colon cancer), AsPC-1 (pancreatic cancer), NCI-H23 (lung cancer), NCI-H460 (lung cancer) and HCT116 (colon cancer) cell-lines. Specifically, for HCT116 and NCI-H460 cell-lines, 100 μl of a culture medium containing 2×10^3 cells per well; for SW480 and NCI-H23 cell-lines, 100 μl of a culture medium containing 5×10^3 cells per well; and, for AsPC-1 cell-line, 100 μl of a culture solution containing 1×10^4 cells per well, respectively, were seeded. The seeded cells were cultured for 24 hours for adhesion to the well, and the medium was changed. […] After completion of the culture, a cell counting kit-8 (CCK-8) solution (10 μl/well) was added, and the cells were further cultured for 4 hours in a CO2 incubator maintained at 37° C.

Experiment [2] relates to HCT116 (colon cancer) cell-line. Description: Cancer inhibitory activity, CCK-8. The experiment is classed as cell-based. The conditions noted are these: HCT-116, 72 hours treatment. On the procedure: as §1
In experiment [3] the test system is NCI-H460 (lung cancer) cell-line. Description: Cancer inhibitory activity, CCK-8. The class given is cell-based. The conditions noted are these: NCI-H460, 72 hours treatment. The protocol: as §1
Experiment [4] concerns SW480 (colon cancer) cell-line. The class given is cell-based. The conditions noted are these: 72 h. On the procedure: as §1
Experiment [5] has as its system AsPC-1 (pancreatic cancer) cell-line. The experiment is classed as cell-based. The conditions noted are these: 72 h. The protocol: as §1
Another experiment has as its target mutant KRAS G12V (Homo sapiens, UniProt P01116, G12V). Nature of the experiment: GTP binding assay. The experiment is classed as biochemical. The conditions noted are these: in the presence of H-REV107 protein, FIG. 3a. The protocol:
The prepared mixture was incubated with a binding solution (50 mM Hepes (pH 7.5), 100 mM NaCl, 2 mM MgCl2, 1 mM EDTA and 1 mM DTT). The culture was passed through Ni-NTA resin and then bound at 4° C. […] GTP (2,500 cpm/pmol) and […] To terminate binding, a washing buffer (20 mM Tris-HCl (pH 7.4), 100 mM NaCl and 2 mM MgCl2) was added. After washing, the bound protein was eluted using 200 mM imidazole. In this example, bovine serum albumin was used as a negative control. Radioactive GTP bound to the protein was quantified by a liquid scintillation counter, and the results thereof are shown in FIG. 3.

As usually defined, the GI50 is the concentration that inhibits growth by half. A lower GI50 goes with more potent growth inhibition.

As for `CC(C)C[C@H](N)C(=O)N[C@@H](Cc1ccc(O)cc1)C(=O)N[C@@H](CC(=O)O)C(=O)N[C@H](C(=O)N[C@@H](C)C(=O)NCC(=O)N[C@@H](CO)C(=O)N[C@@H](CC(=O)O)C(=O)N[C@@H](CCCCN)C(=O)N[C@@H](Cc1ccc(O)cc1)C(=O)O)C(C)C` [CY101], the GI50 entry in experiment [1] is “millimolar (mM) range”; in experiment [2], “millimolar (mM) range”; in experiment [3], “millimolar (mM) range”; in experiment [4] it was 358 µM; in experiment [5], 417 µM.

B1: H-REV107 protein: H-REV107 (HRAS-like suppressor 3), a growth inhibitory RAS target gene product (protein, UniProt P53816 1-162, looked up)
Phospholipase A and …: MRAPIPEPKPGDLIEIFRPFYRHWAIYVGDGYVVHLAPPSEVAGAGAASVMSALTDKAIVKKELLYDVAGSDKYQVNNKHDDKYSPLPCSKIIQRAEELVGQEVLYKLTSENCEHFVNELRYGVARSDQVRDVIIAASVAGMGLAAMSLIGVMFSRNKRQKQ
As to B1, the “radioactive GTP binding activity of the mutant KRAS G12V” value in the experiment with mutant KRAS G12V is “somewhat reduced”.
